Data on ten compounds can be found in PubChem BioAssay (NCI).

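Following 48 hours of exposure in 96-well plates, responses at five concentrations were used to interpolate endpoints linearly. TGI is the concentration that stops growth completely.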

The subject of one test is HOP-18 NSCLC. Nature of the test: NCI anticancer screen, dose series, 48 h.
A further test concerns RXF-631 renal. The test can be described thus: NCI anticancer screen, dose series, 48 h.

For the compound `CCOc1ccccc1NC(=O)C1=C(C)NC(C)=C(C(=O)Nc2ccccc2OCC)C1c1ccc([N+](=O)[O-])cc1`, the TGI in the test with HOP-18 NSCLC and in the test on RXF-631 renal was greater than 100 µM throughout.

For `COc1cc(CCc2ccc(OC(C)=O)cc2)cc(OC)c1OC`, the TGI in the test with HOP-18 NSCLC was greater than 100 µM.

With `Cc1nc(-n2nc(-c3ccccc3)cc2-c2ccccc2)sc1C(=O)/C=C/c1ccccc1`, the TGI in the test with HOP-18 NSCLC and in the test with RXF-631 renal was greater than 100 µM in each case.

The compound `O=C1CNN=C(Cn2nc(-c3ccccc3)c3ccccc3c2=O)N1` showed a TGI in the test on HOP-18 NSCLC greater than 100 µM.

Turning to `O=C(c1ccccc1)c1cc(Cl)ccc1NCn1nnc2ccccc21`, the TGI in the test on HOP-18 NSCLC is greater than 100 µM.

With `O=CC1=CCC2c3[nH]c4ccccc4c3CCN2C1` (stereo not given), the TGI in the test with HOP-18 NSCLC is greater than 396 µM.

In the case of `O=C(/C(=C/c1ccc(O)cc1)c1ccccc1)c1ccccc1`, the TGI with HOP-18 NSCLC came out at 33.4 µM; in the test with RXF-631 renal, 29.3 µM.

For the compound `COc1ccc2c(c1)[n+](=O)c(C(C)=O)c(C)n2[O-]`, the TGI with HOP-18 NSCLC is greater than 100 µM.

As for `CC1=CCN(c2ccccn2)OC1c1ccccc1` (stereo not given), the TGI in the test on HOP-18 NSCLC and in the test on RXF-631 renal was greater than 100 µM in each case.

Regarding `COC(=O)CC1CC2(C(=O)OC)c3[nH]c4ccccc4c3CCN2C1=O` (stereo not given), the results for the TGI with HOP-18 NSCLC and with RXF-631 renal were greater than 100 µM and 31.3 µM, respectively.
